Reference: patent US20170020798A1, “HESPERIDIN-CONTAINING COMPOSITIONS AND METHODS FOR TREATMENT OF SKIN DISORDERS” (The Regents of the University of California, priority 2015, published 2017)
Where a name gives a salt, the structure may show the parent alone.

Columns and labels:
[1] = cited from earlier work
[2] = tested on: aged mouse epidermis; test: Q-PCR for mRNA expression in aged mouse epidermis; format: in vivo
[3] = tested on: GC-induced epidermal side effects; test: Hesperidin co-applications with glucocorticoid (GC): prevention of GC-induced epidermal side effects; format: in vivo
[4] = Solubility of hesperidin in ethanol; format: physicochemical; conditions: 100% ethanol
[5] = tested on: aged epidermis; test: Gross appearance, histology and PCNA staining of aged mouse epidermis; format: in vivo; conditions: aged mice, 2% hesperidin topically twice daily for 9 days; NS vs. vehicle
Procedure: (§1) All animal procedures were approved by the Animal Studies Subcommittee (IACUC) of the San Francisco Veterans Administration Medical Center and performed in accordance with their guidelines. Since hesperidin is not soluble in 100% ethanol, 70% ethanol was used as vehicle. Since the turnover time for […] is about 9.5 days in normal young mice, we chose to treat aged mice for 9 days. Both flanks of 12-15 month old mice were treated topically with 60 μl of 2% hesperidin or 70% ethanol twice daily for 9 days. Basal epidermal permeability barrier function was assessed by measuring transepidermal water loss (TEWL) using TM300 connected to MPA5 (C&K, Cologne, Germany). For barrier recovery, TEWL was measured using an electrolytic water analyzer (Meeco, Warrington, Pa.) at 0, 2 and 4 hours after tape stripping (10-fold increase in TEWL), and percent barrier recovery was calculated.
Immunohistochemical staining for assessing changes in epidermal differentiation was performed as follows. Briefly, 5 μm paraffin sections were incubated with the primary antibodies (Covance, Emeryville, Calif.) overnight at 4° C. […] Staining was detected with ABC-peroxidase kit from Vector Lab (Burlingame, Calif.). Sections were examined with a Zeiss fluorescence microscope (Jena, Germany) and digital images were captured with AxioVision software (Carl Zeiss Vision, Munich, Germany).

[6] = tested on: young normal murine skin; test: Topical hesperidin on young normal murine skin; format: in vivo
[7] = tested on: aged murine skin; test: Epidermal function after topical hesperidin in aged mice (TEWL, barrier recovery, SC hydration, skin surface pH); format: in vivo, mouse
Procedure: as §1

[8] = tested on: aged epidermis; test: Lamellar body density and secretion (electron microscopy); format: in vivo, mouse
From the text: Skin biopsies from both vehicle and hesperidin-treated mice were taken for electron microscopy. Briefly, samples were minced to <0.5 mm^3, fixed in modified Karnovsky's fixative overnight, and post-fixed in either 0.2% ruthenium tetroxide or 1% aqueous osmium tetroxide, containing 1.5% potassium ferrocyanide. After fixation, all samples were dehydrated in a graded ethanol series, and embedded in an Epon-epoxy mixture. Ultrathin sections were examined, with or without further contrasting with lead citrate, in a Zeiss 10A electron microscope (Carl Zeiss, Thornwood, N.J.), operated at 60 kV.
LB numbers were determined in granular cells two to three layers below the stratum granulosum-stratum corneum (SG-SC) junction as previously described. The number of LBs was counted at 4800 magnification using a calibrated grid. Total 10 random pictures from each biopsy sample were assessed. For quantification of LB secretion, number of LB protrusion at the SG-SC junction were measured at a magnification of 5800 and correlated with the length of the bottom surface of the first SC layer on 10 random images at 5800 magnification.

[9] = tested on: keratinocytes isolated from adult human (donor aged 60-65 year old); test: Q-PCR for mRNA expression in adult human keratinocyte cultures; format: cell-based; conditions: 0.02% hesperidin
Procedure: Second-passage keratinocytes isolated from adult human (donor aged 60-65 year old) were cultured in serum-free keratinocyte growth medium containing 0.07 mM calcium (Clonetics, San Diego, Calif.). Cells at 60%-70% confluence were switched to a medium containing 1.2 mM calcium and treated with either 0.02% hesperidin or vehicle alone (0.02% ethanol). After 24 and 48 hrs of treatment, keratinocytes were collected for Q-PCR analysis.
Total RNA was isolated from cultured human keratinocytes using TRI Reagent (Sigma). First strand cDNA was synthesized from 1 ug of total RNA with the iScript cDNA Synthesis Kit (Bio-Rad, Hercules, Calif.). The real-time PCR contained 20 ng of reversed transcribed total RNA, 450 nM forward and reverse primers, and 10 μl of 2× LightCycler 480 SYBR Green I Master in a final volume of 20 μl in 96-well plates using Mx3000PTM Real-time PCR System (Stratagene, La Jolla, Calif.). Quantification was performed by the comparative CT method with 36B4 or Cyclophilin A used for normalization. The primers for lipid synthetic enzymes such as 3-hydroxy-3-methyl-glutaryl-CoA reductase (HMGCoA), serine-palmitoyl transferase 1 (SPT1), fatty acid synthase (FAS), lipid transporters (ATP-binding cassette A12 (ABCA12)), mouse beta defensin 3 (mBD3), sodium-hydrogen exchanger 1 (NHE1), secretary phospholipase A2g2f (sPLA2g2f), filaggrin, involucrin, loricrin and Cyclophilin A are listed in Primer Table 2. Relative expression of the mRNAs compared to control mRNA was calculated. Data are expressed as percentage of control (as 100%).

[10] = tested on: murine skin; test: Epidermal mRNA levels of antioxidant enzymes after topical hesperidin; format: in vivo; conditions: topical hesperidin applications
[11] = tested on: aged mice; test: Cholesterol-dominant lipid mixture plus hesperidin on aged mice; format: in vivo, mouse; conditions: 2% hesperidin added to the triple lipid mixture, 18-month old mice, twice daily for 7 days
Procedure: The composition includes a cholesterol-dominant lipid mixture plus hesperidin for the use on aged mice: 18-Month old mice were divided into groups of untreated, lipid mixture+vehicle (70% ethanol) treated, and lipid mixture+2% hesperidin treated. Mice are treated twice daily for 7 days. All measurements are carried out with a MPA5 physiology monitor. Lipid mixture contained cholesterol, fatty acid and ceramide (3:1:1 molar ratio, with cholesterol at 3 moles) at a concentration of 0.74 wt %. Data are normalized to untreated control, setting untreated as 100%.

[12] = tested on: normal epidermis; conditions: applied to normal epidermis; cited from earlier work
[13] = aged epidermis, topical hesperidin, Q-PCR
[14] = aged mouse epidermis, topical hesperidin
[15] = aged mouse epidermis, topical hesperidin, Q-PCR
[16] = hesperidin co-applications with GC
[17] = aged human keratinocyte cultures

CC(C)CCC[C@@H](C)[C@H]1CC[C@H]2[C@@H]3CC=C4C[C@@H](OS(=O)(=O)O)CC[C@]4(C)[C@H]3CC[C@]12C [CSO4, Cholesterol sulfate]
pKa [1]: 3.1

COc1ccc([C@@H]2CC(=O)c3c(O)cc(O[C@@H]4O[C@H](CO[C@@H]5O[C@@H](C)[C@H](O)[C@@H](O)[C@H]5O)[C@@H](O)[C@H](O)[C@H]4O)cc3O2)cc1O [hesperidin, (2S)-5-hydroxy-2-(3-hydroxy-4-methoxyphenyl)-7-[(2S,3R,4S,5S,6R)-3,4,5-trihydroxy-6-[[(2R,3R,4R,5R,6S)-3,4,5-trihydroxy-6-methyloxan-2-yl]oxymethyl]oxan-2-yl]oxy-2,3-dihydrochromen-4-one]
Nrf2 expression ([2]; aged epidermis): upregulates | NHE1 mRNA levels [2, 13]: marked elevation | sPLA2g2f mRNA levels [2, 13]: marked elevation | epidermal mBD3 mRNA levels ([2]; aged mice, hesperidin treatment): significantly increased | ABCA12 mRNA expression [2, 14]: marked increase | filaggrin mRNA levels [2, 14]: significantly increased | loricrin mRNA levels [2, 14]: significantly increased | FAS mRNA levels [2, 15]: significantly increased | HMGCoA mRNA levels [2, 15]: significantly increased | SPT1 mRNA levels [2, 15]: significantly increased | GC-induced inhibition of epidermal proliferation ([3]; co-applications of hesperidin with GC): prevented | GC-induced impairment of epidermal permeability barrier homeostasis [3, 16]: prevented | GC-induced impairment of stratum corneum (SC) integrity [3, 16]: prevented | epidermal β-glucocerebrosidase activity [3, 16]: enhanced | filaggrin expression [3, 16]: significant increase | lamellar bilayer maturation [3, 16]: accelerated | GC-induced impairment of SC acidification / changes in skin surface pH ([3]; hesperidin co-applications with topical GC): prevented | solubility [4]: not soluble | PCNA-positive cells per cm epidermal length [5]: 2.45±0.13 cells per cm epidermal length | epidermal differentiation [6]: stimulation | epidermal proliferation [6]: stimulation | lamellar body (lipid) secretion [6]: enhanced | skin barrier recovery after acute barrier abrogation [6]: significantly accelerated | skin surface pH ([7]; aged mice, 9 days topical hesperidin, compared with vehicle-treated skin): significantly declined | basal transepidermal water loss rates ([7]; aged mice, 9 days topical hesperidin, compared with vehicle-treated skin, within normal range of young skin): increased slightly | baseline SC hydration ([7]; aged mice, after 9 days of topical hesperidin, no different from vehicle): 58.80±2.27 | barrier recovery ([7]; at both 2 and 4 hours after acute barrier disruption of aged skin): significantly accelerated | density of lamellar bodies ([8]; aged epidermis after hesperidin treatment): did not increase | extent of lamellar body secretion ([8]; aged epidermis, topical hesperidin treatment, quantitative analyses): enhanced | ABCA12 mRNA expression ([9]; adult keratinocyte cultures): marked increase | filaggrin mRNA levels ([9]; adult keratinocyte cultures): increased | involucrin mRNA levels ([9]; adult keratinocyte cultures): increased | loricrin mRNA levels ([9]; adult keratinocyte cultures): increased | CAMP/LL37 expression [9, 17]: markedly upregulated | constitutive hBD2 mRNA expression [9, 17]: no changes | hBD3 mRNA [9, 17]: markedly upregulated | epidermal glutathione reductase mRNA levels [10]: increased | epidermal superoxide dismutase mRNA levels [10]: increased | pH [11]: significantly improved (lowered)

CC[C@H](C)C(=O)O[C@H]1C[C@@H](C)C=C2C=C[C@H](C)[C@H](CC[C@@H]3C[C@@H](O)CC(=O)O3)[C@H]21 [lovastatin]
effect on barrier function [12]: produces a barrier defect
